Assay results published in patent US10226452B2, “Benzoxazolone derivatives as acid ceramidase inhibitors, and their use as medicaments” (FONDAZIONE ISTITUTO ITALIANO DI TECNOLOGIA, priority 2014, dated 2019).

How the values were obtained:
SW403 cells = test: cells; conditions: Homo sapiens, SW-403, read-out: EC50, SW403 cell viability
Description: Combinatory index calculation of cell viability data analyzed with CompuSyn Software. The resulting combination index (CI) offers quantitative definition for additive effect (CI=1), synergism (CI<1), and antagonism (CI>1) in drug combinations. Results are expressed as mean±s.e.m. (n=8-16) of three independent experiments.
Finally, the CellTiter-Glo® Luminescent Cell Viability Assay can be used to determine the number of viable cells in culture based on quantitation of the ATP present, which signals the presence of metabolically active cells. Briefly, a volume of CellTiter-Glo® Reagent equal to the volume of cell culture medium present in each well is added to 96-well plates after drug treatment. Contents are mixed for 2 minutes on an orbital shaker to induce cell lysis and plate was incubated at room temperature for 10 minutes to stabilize signal before reading luminescence.
The compounds were added to the cultures once every 24 hours over a period of 72 hours and the effects of the combined treatments were evaluated using CompuSyn Software.

[1] = biological target: human (hAC) acid ceramidase (Homo sapiens (Human), UniProt Q13510); test: fluorescent-based in vitro assay on human acid ceramidase; format: biochemical; conditions: hAC-enriched lysosomal lysate from HEK293 cells; fluorogenic probe 5 μM; pH 4.5
Description: To evaluate the potency of the compounds towards acid ceramidase, a fluorescence-based in vitro assay previously described in literature (Bedia C et al., ChemBioChem, 2007, 8, 642-648) was implemented and optimized. This assay is based on a “fluorogenic probe” containing a coumarin group and a sphingoid base moiety (see figure below), which is not fluorescent in itself, but upon enzymatic cleavage by acid ceramidase followed by a chemical transformation liberates the fluorescent molecule umbelliferone (7-hydroxychromen-2-one). By quantifying the generation of umbelliferone using a fluorescence plate-reader, the level of enzymatic activity can be measured, whereby IC50 values of compounds that inhibit this activity can be generated.
Lysosomal lysate, enriched with acid ceramidase, was prepared from a cell line stably expressing human acid ceramidase. In the assay, the fluorogenic probe (or substrate) serves as a ceramide-analogue, which is recognized and hydrolyzed at the amide bond by acid ceramidase from the enriched lysate to yield the fatty acid and coumarinic aminodiol. By treating the solution with sodium periodate (NaIO4), the coumarinic aminodiol is subsequently oxidized into an aldehyde intermediate, which undergoes a β-elimination reaction to release the strongly fluorescent umbelliferone.
A lysosomal human acid ceramidase protein preparation was obtained from HEK293 cells stably expressing acid ceramidase suspended in 20 mM Tris HCl (pH 7.5) with 0.32 M sucrose. The cell solution was sonicated and centrifuged at 800×g for 15 min at 4° C. Supernatants were then centrifuged at 12,000×g for 30 min at 4° C. Pellets were re-suspended in PBS pH 7.4 and subjected to two freeze-thaw cycles at −80° C. The suspension was finally centrifuged at 105,000×g for 1 hour at 4° C. and protein concentration was measured in the supernatant with bicinchinonic-acid based protein assay. This human acid ceramidase-enriched preparation allowed us to further optimize the enzymatic assay and to use smaller amounts of lysate (2 μg/well) and substrate (5 μM).
The assay was performed in Optiplate 96-wells black plates, with each reaction well containing a mixture of 25 mM sodium acetate buffer pH 4.5 and a fixed amount of protein (2 μg) in a volume of 85 μL. After 30 mins of pre-incubation with test compounds (diluted 20× from DMSO stock solutions at different concentrations), the fluorogenic probe was added (diluted 20× from EtOH stock solution, final concentration 5 μM). After incubation for 3 hours at 37° C., the reactions were stopped with 50 μL of methanol and 100 μL of a 2.5 mg/mL NalO4 fresh solution in 100 mM Glycine/NaOH pH 10.6. The plate was incubated at 37° C. for 2 hours in the dark and fluorescence intensities were measured at excitation/emission wavelengths of 360/446 nm. Negative control samples consisted of the same incubation mixture in the absence of protein extracts. The IC50 values or percent of inhibition, at the indicated concentration, of selected compounds described in the invention are reported in Table 2.

Sequence of human (hAC) acid ceramidase (Q13510 22-142): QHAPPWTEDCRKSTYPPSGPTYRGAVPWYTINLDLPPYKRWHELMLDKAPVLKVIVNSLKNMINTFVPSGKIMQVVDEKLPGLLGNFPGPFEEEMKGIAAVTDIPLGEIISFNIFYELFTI
Sequence of human (hAC) acid ceramidase (Q13510 143-395): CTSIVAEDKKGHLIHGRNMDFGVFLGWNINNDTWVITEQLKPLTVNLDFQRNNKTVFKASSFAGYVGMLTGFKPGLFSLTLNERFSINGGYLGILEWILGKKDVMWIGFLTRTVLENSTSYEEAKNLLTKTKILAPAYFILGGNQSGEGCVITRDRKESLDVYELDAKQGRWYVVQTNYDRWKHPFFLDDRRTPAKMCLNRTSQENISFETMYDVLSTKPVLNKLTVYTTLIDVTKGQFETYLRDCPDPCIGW

Compound | EC50 (SW403 cells) | IC50 [1]
O=c1[nH]cc(F)c(=O)[nH]1 [Example 5-FU, 5-fluorouracil] | 736 nM | –
O=C(NCCCCc1ccccc1)n1c(=O)oc2cccc(-c3ccccc3)c21 [Example 26, 2-Oxo-4-phenyl-N-(4-phenylbutyl)-1,3-benzoxazole-3-carboxamide] | – | 0.8 ± 0.1 nM
O=C(NCCCCC1CCCCC1)n1c(=O)oc2ccccc21 [Example 39, N-(4-Cyclohexylbutyl)-2-oxo-1,3-benzoxazole-3-carboxamide] | – | 62 ± 44 nM
